Results as given in patent US6875774B2, “Aza-bridged bicyclic amine derivatives for use as novel cholinergic receptor ligands” (The University of North Carolina, priority 2002, dated 2005).
Where a name gives a salt, the structure may show the parent alone. Read-outs that look alike come from different tables or passages of the source.

Columns and labels:
human M2 receptor = molecular target: T1, human M2 receptor (Homo sapiens, UniProt P08172); assay: Muscarinic M2 competition binding assay ([3H]QNB, Sf9 membranes)
T1 construct: made in house; host or cells: Sf9 insect cells (baculovirus)
T1 sequence (P08172 1-466): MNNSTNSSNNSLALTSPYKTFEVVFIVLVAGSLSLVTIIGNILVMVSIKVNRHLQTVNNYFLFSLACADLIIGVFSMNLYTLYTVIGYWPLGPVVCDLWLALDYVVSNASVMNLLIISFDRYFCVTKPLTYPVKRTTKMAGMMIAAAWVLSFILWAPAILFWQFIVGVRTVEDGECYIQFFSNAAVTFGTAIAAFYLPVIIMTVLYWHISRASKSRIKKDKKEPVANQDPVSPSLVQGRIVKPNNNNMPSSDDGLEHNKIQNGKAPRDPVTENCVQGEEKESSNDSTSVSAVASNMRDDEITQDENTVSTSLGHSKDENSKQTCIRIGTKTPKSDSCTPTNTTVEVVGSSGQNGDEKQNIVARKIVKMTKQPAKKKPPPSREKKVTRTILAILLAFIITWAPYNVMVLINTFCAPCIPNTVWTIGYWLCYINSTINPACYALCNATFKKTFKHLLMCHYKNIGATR

human M1 receptor [1] = molecular target: T2, human M1 receptor (Homo sapiens, UniProt P11229); assay: biochemical; assay type: binding
T2 construct: made in house; host or cells: Sf9 insect cells (baculovirus)
T2 sequence (P11229 1-460): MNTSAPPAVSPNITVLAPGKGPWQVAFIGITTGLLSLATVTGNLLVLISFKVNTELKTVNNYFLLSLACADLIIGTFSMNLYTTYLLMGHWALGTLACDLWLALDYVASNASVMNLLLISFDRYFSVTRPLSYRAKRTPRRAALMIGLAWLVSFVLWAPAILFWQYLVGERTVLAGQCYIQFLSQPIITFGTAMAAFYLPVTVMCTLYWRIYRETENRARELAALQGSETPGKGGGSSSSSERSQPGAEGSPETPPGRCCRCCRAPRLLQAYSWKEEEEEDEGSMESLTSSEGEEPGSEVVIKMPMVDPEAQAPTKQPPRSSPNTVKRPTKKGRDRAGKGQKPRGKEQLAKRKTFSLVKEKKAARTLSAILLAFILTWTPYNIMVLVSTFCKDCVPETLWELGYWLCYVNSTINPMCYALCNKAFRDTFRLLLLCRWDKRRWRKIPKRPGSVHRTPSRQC

human M1 receptor [2] = molecular target: T2, human M1 receptor; assay: Functional assay of M1 muscarinic receptors ([3H]inositol phosphate accumulation in Sf9 cells); assay type: cell-based; conditions: 100 μM carbachol with increasing amounts of compound (FIG. 3)
Procedure: A functional assay of M1 muscarinic receptors was performed. M1 receptor activity was determined by measuring activation of the Gαq effector, phospholipase C-β. Recombinant human M1 receptor was expressed (48 h) from a baculovirus in Sf9 insect cells. The inositol lipid pool of cells was radiolabeled by incubating the cells overnight in inositol-free Grace's medium containing 1 μCi of myo-[^3H]inositol. The medium was supplemented with 50 mM HEPES, pH 7.4, and 10 mM LiCl (final concentration) and placed in a 27° C. bath for 10 min prior to assay. The assay was initiated by addition of the appropriate ligand(s) and incubations continued for 20 min. The assay was terminated by aspirating the medium and adding 750 μL of ice-cold 50 mM formic acid. After 30 min at 4° C., the samples were neutralized with 250 μL of 150 mM NH4OH. [^3H]Inositol phosphates were isolated by ion exchange chromatography on Dowex AG 1-X8 columns and quantitated by liquid scintillation counting. […] The data shown in FIG. 3 are the results of an experiment performed in triplicate.

Row | Compound | Ki (human M2 receptor; read-out: hM2 receptor Ki) [µM] | Ki (human M1 receptor [1]; read-out: hM1 receptor Ki) [µM] | functional activity at muscarinic receptor (human M1 receptor [2]) | Ki fold greater than atropine at the human M2 receptor (human M2 receptor; relative to atropine) [fold] | Ki (human M2 receptor; hM2 receptor Ki) [µM] | Ki (human M1 receptor [1]; hM1 receptor Ki) [µM]
1 | CCOC(=O)C1=C(O)C2CCC(CN(C)C)N(C1)C2 (stereo not drawn) [Compound 7, exo-8-Dimethylaminomethyl-3-ethoxycarbonyl-4-hydroxy-1-azabicyclo[3.3.1]non-3-ene] | 23.9 ± 13.7 | 16.8 ± 15.2 | – | – | – | –
2 | CCOC(=O)C1=C(O)[C@H]2CC[C@H](COCc3ccccc3)N(C1)C2 (relative stereo) [Compound 5, exo-8-Benzyloxymethyl-3-ethoxycarbonyl-4-hydroxy-1-azabicyclo[3.3.1]non-3-ene] | 0.0843 ± 0.0081 | 0.203 ± 0.083 | muscarinic receptor antagonist | 14 | – | –
3 | O=C1CCN2CCCC1C2 (stereo not drawn) [Compound 9, 1-Azabicyclo[3.3.1]nonan-4-one] | – | – | – | – | > 100 | > 100
4 | CCOC(=O)C1=C(O)C2CCC(CN(C)C)N(C1)C2 (stereo not drawn) [Compound 8, endo-8-Dimethylaminomethyl-3-ethoxycarbonyl-4-hydroxy-1-azabicyclo[3.3.1]non-3-ene] | 47.6 ± 14.8 | 12.4 ± 3.74 | – | – | – | –
5 | CN(C)CC1CCC2CN1CCC2=O (stereo not drawn) [Compound 13, endo-8-Dimethylaminomethyl-1-azabicyclo[3.3.1]nonan-4-one-HCl] | > 100 | > 100 | – | – | – | –
6 | CN(C)CC1CCC2CN1CCC2=O (stereo not drawn) [Compound 12, exo-8-Dimethylaminomethyl-1-azabicyclo[3.3.1]nonan-4-one-HCl] | – | – | – | – | > 100 | > 100
7 | CCOC(=O)C1=C(O)[C@H]2CC[C@@H](COCc3ccccc3)N(C1)C2 (relative stereo) [Compound 6, endo-8-Benzyloxymethyl-3-ethoxycarbonyl-4-hydroxy-1-azabicyclo[3.3.1]non-3-ene] | 7.35 ± 1.09 | 10.3 ± 2.38 | – | – | – | –
8 | CCOC(=O)C1=C(O)C2CCCN(C1)C2 (stereo not drawn) [Compound 4, 3-Ethoxycarbonyl-4-hydroxy-1-azabicyclo[3.3.1]non-3-ene] | – | – | – | – | 2.85 ± 0.179 | 1.01 ± 0.068
